Three compounds from ChEMBL document CHEMBL3627608, “Crystal structures of human RIP2 kinase catalytic domain complexed with ATP-competitive inhibitors: Foundations for understanding inhibitor selectivity” (Bioorg Med Chem, 2015) can be followed below.

The target of assay [1] is Macrophage-stimulating protein receptor (Homo sapiens) (UniProt Q04912). Kind of assay: Inhibition of RON (unknown origin) at 10 uM after 120 mins P33 radiolabeled kinase activity assay.
For assay [2], the target named is T1, Myosin light chain kinase (Homo sapiens) (UniProt Q32MK0).
T1 sequence (whole entry): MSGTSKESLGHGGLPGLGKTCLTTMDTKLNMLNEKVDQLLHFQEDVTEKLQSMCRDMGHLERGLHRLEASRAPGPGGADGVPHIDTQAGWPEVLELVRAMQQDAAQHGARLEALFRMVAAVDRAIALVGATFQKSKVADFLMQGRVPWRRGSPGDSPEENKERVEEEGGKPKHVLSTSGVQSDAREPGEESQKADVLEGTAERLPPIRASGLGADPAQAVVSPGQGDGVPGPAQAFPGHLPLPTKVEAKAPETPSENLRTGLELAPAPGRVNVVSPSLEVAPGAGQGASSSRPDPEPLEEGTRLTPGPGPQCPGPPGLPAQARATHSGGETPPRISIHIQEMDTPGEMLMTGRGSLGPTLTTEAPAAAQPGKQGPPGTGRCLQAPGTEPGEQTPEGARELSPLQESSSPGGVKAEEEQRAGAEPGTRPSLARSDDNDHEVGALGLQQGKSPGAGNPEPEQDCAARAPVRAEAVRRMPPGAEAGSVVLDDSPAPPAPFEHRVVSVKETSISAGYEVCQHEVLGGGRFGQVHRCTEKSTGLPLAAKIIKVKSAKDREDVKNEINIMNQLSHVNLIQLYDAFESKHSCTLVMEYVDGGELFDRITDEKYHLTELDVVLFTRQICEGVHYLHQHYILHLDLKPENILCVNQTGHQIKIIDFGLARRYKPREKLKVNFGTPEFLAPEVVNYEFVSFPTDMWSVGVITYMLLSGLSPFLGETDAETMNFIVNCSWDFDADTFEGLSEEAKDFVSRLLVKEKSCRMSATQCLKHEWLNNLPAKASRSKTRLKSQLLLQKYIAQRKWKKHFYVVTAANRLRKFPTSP
Kind of assay: Inhibition of MYLK3 (unknown origin) at 10 uM after 120 mins P33 radiolabeled kinase activity assay.

The target in assay [3] is RAC-beta serine/threonine-protein kinase (Homo sapiens) (UniProt P31751). Briefly: Inhibition of AKT2 (unknown origin) at 10 uM after 120 mins P33 radiolabeled kinase activity assay.
Sequence of RAC-beta serine/threonine-protein kinase (Homo sapiens) (P31751 whole entry): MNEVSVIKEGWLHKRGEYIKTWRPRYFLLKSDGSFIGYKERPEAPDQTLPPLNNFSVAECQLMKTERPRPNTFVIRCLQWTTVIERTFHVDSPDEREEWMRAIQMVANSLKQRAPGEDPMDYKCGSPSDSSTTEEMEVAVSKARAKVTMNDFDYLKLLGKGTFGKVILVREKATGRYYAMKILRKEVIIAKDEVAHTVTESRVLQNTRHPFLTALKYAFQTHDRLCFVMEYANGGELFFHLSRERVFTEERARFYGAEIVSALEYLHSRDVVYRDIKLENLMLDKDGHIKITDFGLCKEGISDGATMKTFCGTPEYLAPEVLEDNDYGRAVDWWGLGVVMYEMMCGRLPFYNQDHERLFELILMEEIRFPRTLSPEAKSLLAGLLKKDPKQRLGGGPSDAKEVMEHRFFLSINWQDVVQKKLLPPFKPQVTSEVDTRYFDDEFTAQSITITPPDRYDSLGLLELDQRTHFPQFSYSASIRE
Assay [4] addresses T2, Mitogen-activated protein kinase kinase kinase 6 (Homo sapiens) (UniProt O95382).
T2 sequence (whole entry): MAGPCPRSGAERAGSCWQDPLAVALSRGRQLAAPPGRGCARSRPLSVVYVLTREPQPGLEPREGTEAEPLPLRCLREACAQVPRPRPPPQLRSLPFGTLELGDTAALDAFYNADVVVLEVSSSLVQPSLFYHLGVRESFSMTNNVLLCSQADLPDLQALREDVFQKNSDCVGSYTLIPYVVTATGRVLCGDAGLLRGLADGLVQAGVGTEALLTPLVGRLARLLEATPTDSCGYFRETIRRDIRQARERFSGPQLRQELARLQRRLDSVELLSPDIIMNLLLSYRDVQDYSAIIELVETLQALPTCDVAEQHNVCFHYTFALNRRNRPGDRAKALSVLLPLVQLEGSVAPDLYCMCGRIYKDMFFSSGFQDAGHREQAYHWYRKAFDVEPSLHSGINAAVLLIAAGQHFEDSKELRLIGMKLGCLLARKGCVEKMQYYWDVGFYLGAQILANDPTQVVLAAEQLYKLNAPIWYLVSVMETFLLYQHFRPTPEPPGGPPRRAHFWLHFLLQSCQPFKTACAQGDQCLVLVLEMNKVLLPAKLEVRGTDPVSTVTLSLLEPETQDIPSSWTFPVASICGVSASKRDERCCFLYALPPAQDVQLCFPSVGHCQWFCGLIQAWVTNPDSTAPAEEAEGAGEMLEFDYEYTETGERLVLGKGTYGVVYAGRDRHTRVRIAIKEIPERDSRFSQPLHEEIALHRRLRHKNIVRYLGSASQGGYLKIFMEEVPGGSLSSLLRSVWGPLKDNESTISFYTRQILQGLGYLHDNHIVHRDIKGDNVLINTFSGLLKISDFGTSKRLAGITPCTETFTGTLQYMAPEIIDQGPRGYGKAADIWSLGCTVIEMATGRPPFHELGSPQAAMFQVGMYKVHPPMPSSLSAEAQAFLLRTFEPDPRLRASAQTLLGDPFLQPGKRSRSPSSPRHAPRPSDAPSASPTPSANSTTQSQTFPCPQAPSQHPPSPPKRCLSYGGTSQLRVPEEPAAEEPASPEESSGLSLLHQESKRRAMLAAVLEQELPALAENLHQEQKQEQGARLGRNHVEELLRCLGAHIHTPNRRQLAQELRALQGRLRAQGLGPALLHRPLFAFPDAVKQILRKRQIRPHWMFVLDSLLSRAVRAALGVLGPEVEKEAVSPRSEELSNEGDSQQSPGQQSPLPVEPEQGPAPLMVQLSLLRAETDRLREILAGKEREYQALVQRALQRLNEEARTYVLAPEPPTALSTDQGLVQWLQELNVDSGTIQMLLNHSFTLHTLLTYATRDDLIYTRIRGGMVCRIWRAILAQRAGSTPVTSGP
Kind of assay: Inhibition of MEKK6 (unknown origin) at 10 uM after 120 mins P33 radiolabeled kinase activity assay.

Assay [5] addresses MAP kinase-activated protein kinase 3 (Homo sapiens) (UniProt Q16644). Briefly: Inhibition of MAPKAPK3 (unknown origin) at 10 uM after 120 mins P33 radiolabeled kinase activity assay.
In assay [6] the target is Casein kinase II subunit alpha (Homo sapiens) (UniProt P68400). Kind of assay: Inhibition of CK2alpha (unknown origin) at 10 uM after 120 mins P33 radiolabeled kinase activity assay.
Sequence of Casein kinase II subunit alpha (Homo sapiens) (P68400 whole entry, looked up): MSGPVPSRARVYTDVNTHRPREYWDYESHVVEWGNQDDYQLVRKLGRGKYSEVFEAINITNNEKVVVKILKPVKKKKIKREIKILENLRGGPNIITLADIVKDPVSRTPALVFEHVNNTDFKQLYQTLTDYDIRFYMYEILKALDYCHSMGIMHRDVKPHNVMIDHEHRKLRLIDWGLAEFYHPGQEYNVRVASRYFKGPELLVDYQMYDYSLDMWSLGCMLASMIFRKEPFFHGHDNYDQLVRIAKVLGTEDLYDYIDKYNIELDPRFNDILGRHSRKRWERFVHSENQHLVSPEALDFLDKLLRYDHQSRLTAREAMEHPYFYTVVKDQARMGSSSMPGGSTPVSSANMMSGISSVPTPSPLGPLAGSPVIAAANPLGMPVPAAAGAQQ
Assay [7] deals with Serine/threonine-protein kinase PLK3 (Homo sapiens) (UniProt Q9H4B4). Briefly: Inhibition of PLK3 (unknown origin) at 10 uM after 120 mins P33 radiolabeled kinase activity assay.
Sequence of Serine/threonine-protein kinase PLK3 (Homo sapiens) (Q9H4B4 whole entry, looked up): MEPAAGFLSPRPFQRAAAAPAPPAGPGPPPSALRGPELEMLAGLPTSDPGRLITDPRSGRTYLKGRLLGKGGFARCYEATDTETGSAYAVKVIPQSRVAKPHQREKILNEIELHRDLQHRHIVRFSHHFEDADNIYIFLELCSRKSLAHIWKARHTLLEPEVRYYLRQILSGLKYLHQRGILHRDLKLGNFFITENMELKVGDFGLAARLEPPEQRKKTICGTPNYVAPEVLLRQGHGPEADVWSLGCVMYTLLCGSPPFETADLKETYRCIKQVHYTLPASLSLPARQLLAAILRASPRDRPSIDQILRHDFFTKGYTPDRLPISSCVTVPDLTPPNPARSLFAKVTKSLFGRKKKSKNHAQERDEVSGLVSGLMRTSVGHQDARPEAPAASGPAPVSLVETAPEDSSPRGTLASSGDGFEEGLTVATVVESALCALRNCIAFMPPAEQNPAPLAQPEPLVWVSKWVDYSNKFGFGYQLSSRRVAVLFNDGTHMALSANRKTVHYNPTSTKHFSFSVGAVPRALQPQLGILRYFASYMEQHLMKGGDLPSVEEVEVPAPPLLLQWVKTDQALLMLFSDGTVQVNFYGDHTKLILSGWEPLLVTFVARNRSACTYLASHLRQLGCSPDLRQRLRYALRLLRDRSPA
Assay [8] concerns the target Serine/threonine-protein kinase MRCK beta (Homo sapiens) (UniProt Q9Y5S2). Kind of assay: Inhibition of MRCKbeta (unknown origin) at 10 uM after 120 mins P33 radiolabeled kinase activity assay.
Assay [9] deals with STE20/SPS1-related proline-alanine-rich protein kinase (Homo sapiens) (UniProt Q9UEW8). Briefly: Inhibition of STK39 (unknown origin) at 10 uM after 120 mins P33 radiolabeled kinase activity assay.
Assay [10] addresses Protein-tyrosine kinase 2-beta (Homo sapiens) (UniProt Q14289). Kind of assay: Inhibition of PYK2 (unknown origin) at 10 uM after 120 mins P33 radiolabeled kinase activity assay.

Sequence of Macrophage-stimulating protein receptor (Homo sapiens) (Q04912 25-304 limits assumed): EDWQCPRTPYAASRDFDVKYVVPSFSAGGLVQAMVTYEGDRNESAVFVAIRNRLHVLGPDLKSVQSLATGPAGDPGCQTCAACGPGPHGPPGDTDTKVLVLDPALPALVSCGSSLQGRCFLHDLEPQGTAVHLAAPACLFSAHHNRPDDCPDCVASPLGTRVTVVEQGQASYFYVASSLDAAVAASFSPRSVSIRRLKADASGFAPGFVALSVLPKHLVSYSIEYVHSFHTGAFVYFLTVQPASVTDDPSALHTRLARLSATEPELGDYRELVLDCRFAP
Sequence of Macrophage-stimulating protein receptor (Homo sapiens) (Q04912 310-1400 limits assumed): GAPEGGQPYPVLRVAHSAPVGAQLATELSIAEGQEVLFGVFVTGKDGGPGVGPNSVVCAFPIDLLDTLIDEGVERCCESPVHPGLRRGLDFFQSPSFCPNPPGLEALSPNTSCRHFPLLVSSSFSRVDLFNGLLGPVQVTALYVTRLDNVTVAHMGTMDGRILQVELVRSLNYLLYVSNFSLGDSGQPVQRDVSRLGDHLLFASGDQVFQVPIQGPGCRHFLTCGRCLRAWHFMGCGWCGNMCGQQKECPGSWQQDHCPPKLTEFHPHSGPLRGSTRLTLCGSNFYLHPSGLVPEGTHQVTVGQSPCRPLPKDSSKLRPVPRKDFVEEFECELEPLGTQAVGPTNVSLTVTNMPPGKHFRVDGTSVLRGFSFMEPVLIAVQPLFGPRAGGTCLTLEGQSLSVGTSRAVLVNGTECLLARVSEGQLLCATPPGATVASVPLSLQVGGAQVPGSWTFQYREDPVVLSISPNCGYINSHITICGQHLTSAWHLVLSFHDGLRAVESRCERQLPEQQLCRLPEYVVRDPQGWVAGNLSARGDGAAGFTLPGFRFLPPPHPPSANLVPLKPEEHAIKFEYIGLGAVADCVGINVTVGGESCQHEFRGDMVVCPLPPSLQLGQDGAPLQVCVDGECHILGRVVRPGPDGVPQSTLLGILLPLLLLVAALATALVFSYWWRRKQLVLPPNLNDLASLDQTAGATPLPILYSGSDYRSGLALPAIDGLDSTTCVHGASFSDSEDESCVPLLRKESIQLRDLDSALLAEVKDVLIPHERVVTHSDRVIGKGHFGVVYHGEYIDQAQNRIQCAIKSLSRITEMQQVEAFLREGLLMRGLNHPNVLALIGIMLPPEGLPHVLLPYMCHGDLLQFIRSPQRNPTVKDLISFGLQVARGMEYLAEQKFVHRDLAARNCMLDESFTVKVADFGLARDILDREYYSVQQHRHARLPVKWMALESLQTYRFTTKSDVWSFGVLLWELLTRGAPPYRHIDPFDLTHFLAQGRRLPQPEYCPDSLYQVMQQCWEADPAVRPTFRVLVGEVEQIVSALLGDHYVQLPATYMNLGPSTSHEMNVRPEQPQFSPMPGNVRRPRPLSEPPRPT
Sequence of Serine/threonine-protein kinase MRCK beta (Homo sapiens) (Q9Y5S2 whole entry): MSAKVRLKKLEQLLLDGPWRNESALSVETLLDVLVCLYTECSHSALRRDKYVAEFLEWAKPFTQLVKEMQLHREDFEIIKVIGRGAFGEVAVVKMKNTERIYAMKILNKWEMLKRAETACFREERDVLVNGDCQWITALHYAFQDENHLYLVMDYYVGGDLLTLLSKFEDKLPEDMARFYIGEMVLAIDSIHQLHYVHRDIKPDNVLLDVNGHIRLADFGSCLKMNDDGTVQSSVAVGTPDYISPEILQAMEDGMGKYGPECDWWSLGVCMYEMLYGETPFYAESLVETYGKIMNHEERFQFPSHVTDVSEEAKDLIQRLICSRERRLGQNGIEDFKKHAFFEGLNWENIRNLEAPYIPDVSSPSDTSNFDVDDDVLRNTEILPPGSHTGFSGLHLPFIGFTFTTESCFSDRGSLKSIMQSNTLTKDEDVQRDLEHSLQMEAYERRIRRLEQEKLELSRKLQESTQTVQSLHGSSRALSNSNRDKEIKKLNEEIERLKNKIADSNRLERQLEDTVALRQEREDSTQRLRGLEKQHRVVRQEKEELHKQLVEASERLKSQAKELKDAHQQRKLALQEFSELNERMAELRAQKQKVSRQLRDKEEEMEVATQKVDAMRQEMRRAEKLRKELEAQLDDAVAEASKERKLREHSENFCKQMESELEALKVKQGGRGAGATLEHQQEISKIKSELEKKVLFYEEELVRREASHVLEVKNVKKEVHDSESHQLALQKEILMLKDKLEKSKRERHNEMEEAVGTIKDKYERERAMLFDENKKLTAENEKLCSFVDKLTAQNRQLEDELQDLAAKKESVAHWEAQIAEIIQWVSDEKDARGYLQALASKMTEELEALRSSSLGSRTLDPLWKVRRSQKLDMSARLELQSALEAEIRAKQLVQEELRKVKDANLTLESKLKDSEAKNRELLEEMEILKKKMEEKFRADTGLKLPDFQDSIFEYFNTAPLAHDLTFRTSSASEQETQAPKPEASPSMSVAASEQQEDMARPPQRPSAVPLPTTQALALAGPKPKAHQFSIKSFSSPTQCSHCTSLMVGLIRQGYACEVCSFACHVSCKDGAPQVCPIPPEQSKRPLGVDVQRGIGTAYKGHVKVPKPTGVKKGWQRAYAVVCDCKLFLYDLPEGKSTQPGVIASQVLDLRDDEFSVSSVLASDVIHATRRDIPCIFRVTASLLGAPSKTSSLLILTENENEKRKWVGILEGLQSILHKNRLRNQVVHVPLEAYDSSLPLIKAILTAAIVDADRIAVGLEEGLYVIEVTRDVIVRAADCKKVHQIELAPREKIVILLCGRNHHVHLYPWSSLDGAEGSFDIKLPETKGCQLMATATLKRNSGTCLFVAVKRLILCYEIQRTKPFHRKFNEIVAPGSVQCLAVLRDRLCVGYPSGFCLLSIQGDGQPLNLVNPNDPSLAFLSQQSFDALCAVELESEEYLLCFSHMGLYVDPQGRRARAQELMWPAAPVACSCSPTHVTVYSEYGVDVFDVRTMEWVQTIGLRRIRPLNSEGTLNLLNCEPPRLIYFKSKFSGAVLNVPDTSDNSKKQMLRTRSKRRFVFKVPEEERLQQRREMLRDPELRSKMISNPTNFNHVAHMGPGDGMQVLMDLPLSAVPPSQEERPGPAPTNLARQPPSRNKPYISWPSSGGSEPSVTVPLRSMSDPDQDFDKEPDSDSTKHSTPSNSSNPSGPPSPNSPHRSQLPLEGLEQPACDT
Sequence of MAP kinase-activated protein kinase 3 (Homo sapiens) (Q16644 whole entry, looked up): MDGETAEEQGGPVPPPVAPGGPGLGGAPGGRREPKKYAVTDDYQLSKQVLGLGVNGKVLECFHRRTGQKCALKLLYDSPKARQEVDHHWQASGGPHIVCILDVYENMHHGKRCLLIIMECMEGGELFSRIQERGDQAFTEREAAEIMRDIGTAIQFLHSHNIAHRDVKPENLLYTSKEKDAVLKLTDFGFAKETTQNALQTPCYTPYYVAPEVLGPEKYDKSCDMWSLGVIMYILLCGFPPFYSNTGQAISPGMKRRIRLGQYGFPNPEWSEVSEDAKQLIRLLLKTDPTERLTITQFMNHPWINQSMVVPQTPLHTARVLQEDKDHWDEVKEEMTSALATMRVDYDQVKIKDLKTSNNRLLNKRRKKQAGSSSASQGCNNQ

Turning to `CS(=O)(=O)c1cccc(Nc2nccc(-c3sc(N4CCOCC4)nc3-c3cccc(NS(=O)(=O)c4c(F)cccc4F)c3)n2)c1`, the inhibition (usually the drop in the measured response relative to a control, in per cent) in [1] was 18.7%; in [2], -2.12%; in [3], 21.6%; in assay [4], -4.09%; in assay [5], -3.69%; in assay [6], 19.7%. The inhibition was found to be 3.68% in assay [7], 14.4% in assay [8], 28.6% in assay [9] and 23.7% in assay [10].
In the case of `CC(C)(C)c1cc(NC(=O)Nc2ccc(Oc3ccncc3)cc2)no1`, the inhibition in assay [1] was 70.6%; in assay [2] it was -2.01%; in assay [3] it was 20.6%; in [4], 4.35%; in [5] it was -4.91%; in assay [6], 20%. The inhibition in assay [7] was -1.93%; in [8], 16.5%; in [9], 52.4%; in assay [10], 16.5%.
Take `COCCNC(=O)c1ccc2c(c1)nc(-c1cnc(-c3ccc(Cl)cc3)[nH]1)n2CCOC`: the inhibition is 1.69% in assay [1]; -0.74% in [2]; 18.9% in [3]; -0.42% in [4]; 0.16% in assay [5]; 8.6% in [6]. For the same compound, the inhibition in [7] is 0.99%; in [8], 11.1%; in assay [9], 6.77%; in assay [10], 7.67%.
